Results taken from ChEMBL document CHEMBL1201862, “PubChem BioAssay data set” (2004).
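Five concentrations, 48 hours, 96-well plates. GI50 = concentration required for 50% inhibition of growth.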 Activity calls are given as the source filed them. No stated cut-off is given here; in the data, active = GI50 up to about 1.1 µM and inactive = higher.

Legend:
Assay in all cases: inhibition of tumour cell growth, NCI panel, 48 h
[1] = tested on: NCI-H226
[2] = tested on: MCF7
[3] = tested on: HOP-92
[4] = tested on: K562
[5] = tested on: OVCAR-8
[6] = tested on: EKVX
[7] = tested on: HT-29
[8] = tested on: KM12
[9] = tested on: NCI-H23
[10] = tested on: HCT-15
[11] = tested on: A498
[12] = tested on: MDA-MB-231
[13] = tested on: NCI-H522
[14] = tested on: 786-0
[15] = tested on: U-251
[16] = tested on: MOLT-4
[17] = tested on: Hs-578T
[18] = tested on: SK-OV-3
[19] = tested on: SNB-19
[20] = tested on: UO-31

| Structure (SMILES) | GI50 [1] | GI50 [2] | GI50 [3] | GI50 [4] | GI50 [5] | GI50 [6] | GI50 [7] | GI50 [8] | GI50 [9] | GI50 [10] [µM] | GI50 [11] | GI50 [12] | GI50 [13] | GI50 [14] | GI50 [15] | GI50 [16] | GI50 [17] | GI50 [18] | GI50 [19] | GI50 [20] |
| --- | --- | --- | --- | --- | --- | --- | --- | --- | --- | --- | --- | --- | --- | --- | --- | --- | --- | --- | --- | --- |
| C[C@@H]1CC[C@@]2(OC1)O[C@H]1[C@@H](O)[C@H]3[C@@H]4CC[C@H]5C[C@@H](O[C@@H]6O[C@H](CO)[C@H](O[C@@H]7O[C@H](CO)C(O)[C@H](O[C@@H]8OC[C@@H](O)[C@H](O)[C@H]8O)[C@H]7O[C@@H]7O[C@H](CO)[C@H](O)[C@H](O[C@@H]8O[C@H](CO)[C@@H](O)[C@H](O)[C@H]8O)[C@H]7O)[C@H](O)[C@H]6O)[C@H](O)C[C@]5(C)[C@H]4CC[C@]3(C)[C@H]1[C@@H]2C (some centres not stated) [DIGITONIN] | 1.51 µM (inactive) | 2.18 µM (inactive) | 4.74 µM (inactive) | 3.08 µM (inactive) | 2.02 µM (inactive) | 3.13 µM (inactive) | 3.51 µM (inactive) | 2.12 µM (inactive) | 2.26 µM (inactive) | 4.03 | 6.18 µM (inactive) | 2.48 µM (inactive) | 2.06 µM (inactive) | 1.61 µM (inactive) | 3.43 µM (inactive) | 3.9 µM (inactive) | 2.06 µM (inactive) | 2.36 µM (inactive) | 2.07 µM (inactive) | 1.94 µM (inactive) |
| C=C(Cl)C(C)(Cl)CCC(Cl)C(C)C (configuration not stated) | > 100 µM (inactive) | > 100 µM (inactive) | 87.1 µM (inactive) | 51.5 µM (inactive) |  | > 100 µM (inactive) | 66.8 µM (inactive) | > 100 µM (inactive) | > 100 µM (inactive) |  | > 100 µM (inactive) | > 100 µM (inactive) | 37 µM (inactive) | > 100 µM (inactive) | > 100 µM (inactive) | 36.7 µM (inactive) | > 100 µM (inactive) | 29.6 µM (inactive) | > 100 µM (inactive) | > 100 µM (inactive) |
| CCCCCCCCCCCCCCCCCc1cccc(OCOCCOC)c1CO | > 100 µM (inactive) | > 100 µM (inactive) | > 100 µM (inactive) | > 100 µM (inactive) | > 100 µM (inactive) | > 100 µM (inactive) | > 100 µM (inactive) | > 100 µM (inactive) | > 100 µM (inactive) | > 100 | > 100 µM (inactive) | > 100 µM (inactive) | > 100 µM (inactive) | > 100 µM (inactive) | > 100 µM (inactive) | > 100 µM (inactive) | > 100 µM (inactive) | > 100 µM (inactive) | > 100 µM (inactive) | > 100 µM (inactive) |
| Oc1cc(-c2cccc3ccccc23)nc2ncccc12 | 0.0339 µM (active) | 0.00693 µM (active) | 0.434 µM (active) | 0.00525 µM (active) | 0.05 µM (active) | 0.0948 µM (active) | 0.0173 µM (active) | 0.0122 µM (active) | 0.035 µM (active) | 0.00627 | 0.0206 µM (active) | 0.172 µM (active) | 0.0201 µM (active) | 0.0321 µM (active) | 0.0211 µM (active) | 0.0506 µM (active) | 0.0524 µM (active) | 0.0176 µM (active) | 0.0274 µM (active) | 0.0402 µM (active) |
| CS(=O)(=O)Nc1ccc(Nc2ccnc3ccc4[nH]ccc4c23)cc1 | 8.49 µM (inactive) | 4.89 µM (inactive) | 8.36 µM (inactive) | 6.64 µM (inactive) | 7.96 µM (inactive) | 24.8 µM (inactive) | 18.4 µM (inactive) | 11.6 µM (inactive) | 16.3 µM (inactive) | 46 | 18.5 µM (inactive) | 8.93 µM (inactive) | 6.4 µM (inactive) | 9.64 µM (inactive) | 9.93 µM (inactive) | 3.13 µM (inactive) | 21.8 µM (inactive) | 19.5 µM (inactive) | 6.52 µM (inactive) | 29.7 µM (inactive) |
| CC(C)C(NC(=O)C(Cc1ccccc1)NC(=O)[C@H]1CCC[C@H]1NC(=O)C(Cc1ccc(OC(C)(C)C)cc1)NC(=O)OC(C)(C)C)C(N)=O (some centres not stated) | 22.4 µM (inactive) | 19.8 µM (inactive) | 21.8 µM (inactive) | 17.8 µM (inactive) | 16.6 µM (inactive) | > 100 µM (inactive) | 21.5 µM (inactive) | 21.9 µM (inactive) | 16.9 µM (inactive) | 36.1 | 10.7 µM (inactive) | 20.7 µM (inactive) | 14.9 µM (inactive) | 60.1 µM (inactive) | 14.2 µM (inactive) | 17.4 µM (inactive) | > 10 µM (inactive) | 17.9 µM (inactive) |  | 47.4 µM (inactive) |
| O=C1C2CCCCC2C(=O)N1n1c(-c2ccccc2)n[nH]c1=O (configuration not stated) | > 100 µM (inactive) | > 100 µM (inactive) | > 100 µM (inactive) | > 100 µM (inactive) | > 100 µM (inactive) | > 100 µM (inactive) | > 100 µM (inactive) | > 100 µM (inactive) | > 100 µM (inactive) | > 100 | > 100 µM (inactive) | > 100 µM (inactive) | > 100 µM (inactive) | > 100 µM (inactive) | > 100 µM (inactive) | > 100 µM (inactive) | > 100 µM (inactive) | > 100 µM (inactive) | > 100 µM (inactive) | > 100 µM (inactive) |
| C/C(=N\NC(N)=O)C(CN(C)C)C(c1ccccc1)c1c(O)c2ccccc2oc1=O (configuration not stated) | > 100 µM (inactive) | > 100 µM (inactive) | 0.296 µM (active) | > 100 µM (inactive) | > 100 µM (inactive) | > 100 µM (inactive) | > 100 µM (inactive) | > 100 µM (inactive) | > 100 µM (inactive) | > 100 | > 100 µM (inactive) | > 100 µM (inactive) | > 100 µM (inactive) | > 100 µM (inactive) | > 100 µM (inactive) | 71.9 µM (inactive) | > 100 µM (inactive) |  | > 100 µM (inactive) | > 100 µM (inactive) |
| CC1=NN(c2cccc(Cl)c2)C(=N/c2nc3ccccc3s2)/C1=C\c1ccc(Cl)cc1 | 21.2 µM (inactive) | 22.2 µM (inactive) | 17.4 µM (inactive) | 29 µM (inactive) | 19.8 µM (inactive) | 33.2 µM (inactive) | 17.9 µM (inactive) |  | 18.7 µM (inactive) | 14.2 | 22.2 µM (inactive) | 20.7 µM (inactive) | 18.7 µM (inactive) | 18.8 µM (inactive) | 14.8 µM (inactive) | 24.4 µM (inactive) | 23 µM (inactive) | 36.4 µM (inactive) |  | 23.9 µM (inactive) |
| CN(C)/C=C(\C(=O)c1ccccc1)n1nc(-c2ccccc2)cc1-c1ccccc1 | > 10 µM (inactive) | > 10 µM (inactive) | 7.38 µM (inactive) |  | > 10 µM (inactive) | > 10 µM (inactive) | > 10 µM (inactive) | > 10 µM (inactive) | > 10 µM (inactive) | > 10 | > 10 µM (inactive) | > 10 µM (inactive) | > 10 µM (inactive) | > 10 µM (inactive) | > 10 µM (inactive) | > 10 µM (inactive) | > 10 µM (inactive) | > 10 µM (inactive) | > 10 µM (inactive) |  |
| CC(=O)Oc1ccc(-c2cc3ccccc3oc2=O)cc1 | > 100 µM (inactive) | > 100 µM (inactive) | 60.8 µM (inactive) | 83.4 µM (inactive) | > 100 µM (inactive) | 61.1 µM (inactive) | > 100 µM (inactive) | 18.7 µM (inactive) | > 100 µM (inactive) | > 100 | 38.9 µM (inactive) | > 100 µM (inactive) | 21.8 µM (inactive) | > 100 µM (inactive) | > 100 µM (inactive) | 45.6 µM (inactive) | > 100 µM (inactive) |  | > 100 µM (inactive) | > 100 µM (inactive) |
| Cc1nc2cc([N+](=O)[O-])ccc2c(NCCCN(C)C)c1C | 5.08 µM (inactive) | 2.94 µM (inactive) | 1.95 µM (inactive) | 3.77 µM (inactive) | 11.5 µM (inactive) |  | 2.76 µM (inactive) | 6.05 µM (inactive) | 4.03 µM (inactive) | 14.7 | 14.9 µM (inactive) | 3.34 µM (inactive) | 3.61 µM (inactive) | 10.4 µM (inactive) | 18.8 µM (inactive) | 1.91 µM (inactive) | 20 µM (inactive) | 31.5 µM (inactive) |  | 14.7 µM (inactive) |
| c1ccc(NN=C(c2ccccn2)c2ccccn2)nc1 | 0.285 µM (active) | < 0.0245 µM (active) | 0.488 µM (active) | 0.463 µM (active) | 0.0384 µM (active) | 0.335 µM (active) | < 0.01 µM (active) | 0.552 µM (active) | 0.0408 µM (active) | 0.0893 | 0.447 µM (active) | 0.389 µM (active) | < 0.01 µM (active) | 0.142 µM (active) | 0.318 µM (active) |  | 4.82 µM (inactive) | 0.369 µM (active) | 0.598 µM (active) | 0.0267 µM (active) |
| Cc1ncc([N+](=O)[O-])n1CCNS(=O)(=O)CCCn1ncnc1[N+](=O)[O-] | > 100 µM (inactive) | > 100 µM (inactive) | > 100 µM (inactive) | > 100 µM (inactive) | > 100 µM (inactive) | > 100 µM (inactive) | > 100 µM (inactive) | > 100 µM (inactive) | > 100 µM (inactive) | > 100 | > 100 µM (inactive) | > 100 µM (inactive) | > 100 µM (inactive) | > 100 µM (inactive) | > 100 µM (inactive) | > 100 µM (inactive) | > 100 µM (inactive) | > 100 µM (inactive) |  | > 100 µM (inactive) |
